Results: ChEMBL document CHEMBL1201862, “PubChem BioAssay data set” (2004)
Where “and” joins values, the source holds several entries; their conditions need not be identical. Equal entries are not always repeated. Calls of active or inactive are those of the source.

What was measured:
Cytochrome P450 3A4 = Cytochrome P450 3A4 (Homo sapiens, UniProt P08684);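 note: CYP3A4 tested as one member of a cytochrome P450 panel screen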
[1] = inhibitors of intracellular T. cruzi replication, confirmation, NIH3T3 host cells, beta-gal luminescence (AID 2044); assay type: functional, cell-based;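 note: intracellular parasites grown in NIH/3T3 mouse fibroblasts as host cells; luminescent beta-galactosidase reporter signal from transgenic T. cruzi replicating inside host cells; inhibitors lower the luminescence signal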
[2] = cytotoxicity toward NIH3T3 fibroblasts, dose response, counter-screen, cell-based, ATP luminescence, mouse fibroblasts (AID 2010); assay type: functional;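 note: cells exposed to compound for about 90 hours before reading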
Cytochrome P450 2C9 = Cytochrome P450 2C9 (Homo sapiens, UniProt P11712)
[3] = system: Streptococcus sp. 'group A'; test: growth inhibition of control SK(-) GAS strain, dose response, counter-screen for streptokinase expression inhibitor project, luminescence, kanamycin, BacTiterGlo, confirmation (AID 1900); assay type: functional, organism-based
Streptococcus = test: Group A Streptococcus viability loss, dose response, counter-screen for streptokinase expression inhibitor project, luminescence, BacTiterGlo (AID 1915); assay type: functional, organism-based;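 note: potency for reduction of bacterial viability or growth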
[4] = Luminescence Cell-Based Dose Response HTS to Identify Activators of Luciferase Translation or Activity in H4 […] Cells. [Related pubchem assays: 1829 (Project Summary), 1814 (Primary HTS)]; assay type: functional
H4 = test: Luminescence Cell-Based Dose Response HTS to Identify Activators of 5'UTR Stem-Loop Driven Prion Protein mRNA Translation in H4 Neuroglioblastoma Cells. [Related pubchem assays: 1829 (Project Summary), 1814 (Primary HTS)]; assay type: functional; settings: Homo sapiens
Cytochrome P450 2C19 = Cytochrome P450 2C19 (Homo sapiens, UniProt P33261); test: Cytochrome panel assay with activity outcomes. Panel member name: p450-cyp2c19 Compounds with AC50 equal or less than 10 uM are considered active; assay type: functional
[5] = target: T1, Corticotropin-releasing factor receptor 2/Corticotropin-releasing factor-binding protein (Homo sapiens, UniProt P24387+Q13324); test: activators of CRF receptor 2 with binding protein – uHTS hits, confirmation (AID 602473); assay type: functional; settings: read-out: EC50_Mean
T1 sequence (Q13324 whole entry): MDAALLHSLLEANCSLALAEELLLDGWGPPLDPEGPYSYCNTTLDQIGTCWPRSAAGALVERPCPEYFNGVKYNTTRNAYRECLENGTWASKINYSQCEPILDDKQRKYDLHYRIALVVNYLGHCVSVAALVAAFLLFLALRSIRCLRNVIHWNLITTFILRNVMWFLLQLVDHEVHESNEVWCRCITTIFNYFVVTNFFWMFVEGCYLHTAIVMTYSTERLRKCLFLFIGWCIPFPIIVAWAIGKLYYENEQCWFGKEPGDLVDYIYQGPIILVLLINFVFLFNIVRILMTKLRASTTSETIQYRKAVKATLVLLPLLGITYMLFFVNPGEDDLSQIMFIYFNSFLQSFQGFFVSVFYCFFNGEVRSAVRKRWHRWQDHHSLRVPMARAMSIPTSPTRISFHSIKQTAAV
T1 sequence (P24387 whole entry): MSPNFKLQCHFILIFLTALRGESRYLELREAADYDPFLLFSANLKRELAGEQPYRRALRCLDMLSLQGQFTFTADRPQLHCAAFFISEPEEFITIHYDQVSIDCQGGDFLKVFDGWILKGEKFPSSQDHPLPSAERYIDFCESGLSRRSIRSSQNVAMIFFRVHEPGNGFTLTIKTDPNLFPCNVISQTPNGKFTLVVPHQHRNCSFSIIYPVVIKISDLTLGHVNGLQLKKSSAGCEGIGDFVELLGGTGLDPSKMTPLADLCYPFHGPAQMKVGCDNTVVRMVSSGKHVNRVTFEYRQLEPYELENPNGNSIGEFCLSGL

Chain of Cytochrome P450 3A4 (P08684 whole entry): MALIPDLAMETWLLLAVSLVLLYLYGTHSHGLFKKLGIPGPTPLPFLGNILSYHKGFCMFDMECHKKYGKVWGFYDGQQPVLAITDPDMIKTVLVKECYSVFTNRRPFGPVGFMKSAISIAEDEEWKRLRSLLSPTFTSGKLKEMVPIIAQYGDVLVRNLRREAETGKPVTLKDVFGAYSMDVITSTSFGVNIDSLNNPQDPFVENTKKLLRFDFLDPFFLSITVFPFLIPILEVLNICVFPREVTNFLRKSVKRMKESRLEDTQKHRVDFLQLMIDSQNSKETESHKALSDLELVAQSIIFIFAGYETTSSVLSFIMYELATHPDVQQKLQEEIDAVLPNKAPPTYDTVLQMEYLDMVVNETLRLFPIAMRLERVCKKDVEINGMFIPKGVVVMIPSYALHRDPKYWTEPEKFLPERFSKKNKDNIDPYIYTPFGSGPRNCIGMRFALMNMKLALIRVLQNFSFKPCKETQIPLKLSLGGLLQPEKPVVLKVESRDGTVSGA
Chain of Cytochrome P450 2C19 (P33261 whole entry): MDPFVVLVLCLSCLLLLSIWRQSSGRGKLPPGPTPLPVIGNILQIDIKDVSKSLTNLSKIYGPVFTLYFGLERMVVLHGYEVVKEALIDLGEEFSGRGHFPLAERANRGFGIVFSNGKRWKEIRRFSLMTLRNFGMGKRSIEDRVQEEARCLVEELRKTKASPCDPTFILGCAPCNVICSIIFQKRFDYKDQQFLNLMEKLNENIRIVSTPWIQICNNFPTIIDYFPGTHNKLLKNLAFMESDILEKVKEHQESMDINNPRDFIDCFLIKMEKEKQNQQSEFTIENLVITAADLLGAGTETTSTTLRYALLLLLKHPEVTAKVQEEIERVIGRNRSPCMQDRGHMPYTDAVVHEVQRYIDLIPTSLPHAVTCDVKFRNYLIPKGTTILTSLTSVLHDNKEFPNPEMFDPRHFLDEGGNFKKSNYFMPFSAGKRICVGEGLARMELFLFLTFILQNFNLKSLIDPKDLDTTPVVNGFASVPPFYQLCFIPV
Chain of Cytochrome P450 2C9 (P11712 whole entry): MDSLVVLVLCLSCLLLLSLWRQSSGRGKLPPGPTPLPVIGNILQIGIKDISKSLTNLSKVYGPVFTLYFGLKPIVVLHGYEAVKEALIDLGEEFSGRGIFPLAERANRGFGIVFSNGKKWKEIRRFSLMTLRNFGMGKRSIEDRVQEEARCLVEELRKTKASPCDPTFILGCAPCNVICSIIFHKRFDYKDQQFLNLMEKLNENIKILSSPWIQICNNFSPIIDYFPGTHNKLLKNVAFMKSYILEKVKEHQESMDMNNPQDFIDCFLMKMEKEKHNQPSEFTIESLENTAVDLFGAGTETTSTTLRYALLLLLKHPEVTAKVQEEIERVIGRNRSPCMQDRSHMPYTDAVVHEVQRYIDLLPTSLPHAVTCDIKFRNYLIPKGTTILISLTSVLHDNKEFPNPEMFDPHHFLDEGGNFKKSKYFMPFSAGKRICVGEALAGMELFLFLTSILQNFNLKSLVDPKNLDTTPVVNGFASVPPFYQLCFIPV

SMILES | AC50 (Cytochrome P450 3A4) | EC50 [1] | EC50 [2] | also measured
CC12CS(=O)(=O)CC1SC(=S)N2c1ccccn1 (stereo not given) | 17.8 µM (inconclusive) |  |  | 
CN(C)CCn1c(=O)n(Cc2ccco2)c(=O)c2c3c(sc21)CCCCC3 | 12.6 µM (inconclusive) | 0.196 µM (active) | > 60 µM (not active) | 
COc1ccccc1CCn1c(=O)c(C)nc2cncnc21 |  |  |  | AC50 (Cytochrome P450 2C9): 31.6 µM (inconclusive)
COc1ccc(C(C(=O)NC2CCCC2)N(C(=O)c2snc(-c3ccc(F)cc3)c2N)c2ccccc2)cc1 (stereo not given) |  |  |  | AC50 (Cytochrome P450 2C9): 0.891 µM (inconclusive)
Cc1cccc(CN2CCN(CCCc3ccccc3)CC2)c1 |  | 0.478 µM (active) | > 60 µM (not active) | 
COc1cc(-c2cc(-c3ccccc3)nc(SCC(=O)Nc3nccs3)c2C#N)cc(OC)c1OC |  | 1.72 µM (active) | > 30 µM (not active) | 
COc1cccc(C2c3c(C)nn(-c4ccc([N+](=O)[O-])cc4)c3N=C3C(=O)Nc4ccccc4N32)c1 (stereo not given) |  | 1.87 µM (active) | > 60 µM (not active) | 
c1ccc(CCn2nnnc2C(c2cccnc2)N2CCN(c3nc4ccccc4s3)CC2)cc1 (stereo not given) |  | 0.244 µM (active) | 31.2 µM (active) | 
COc1ccc(/C=C/c2ccc3cccc(O)c3n2)c(OC)c1OC |  |  |  | EC50 [3]: 4.85 µM (active); EC50 (Streptococcus): 6.25 µM (active)
C[C@@H](C(=O)NC1CCN(Cc2ccccc2)CC1)N1C(=O)N2CCc3c([nH]c4ccccc34)[C@@]2(C)C1=O |  | 0.299 µM (active) | > 60 µM (not active) | 
CC(C)(C)CC(=O)NC(=S)Nc1ccccc1C(F)(F)F | 22.4 µM (inconclusive) |  |  | 
CO[C@@H]1COC(=O)C/C=C\[C@@H](C)COC(=O)[C@H](COCc2ccccc2)NC(=O)C/C=C\[C@H]1C | 3.98 µM (inconclusive) |  |  | 
CCCc1ccc2oc(C(=O)N3CCC[C@H]3CO)c(C)c2c1 |  |  |  | EC50 [4]: 1.11 µM (active); EC50 (H4): > 120 µM (not active)
CCOc1cc(/C=C2\N=C(C)OC2=O)cc(Br)c1OCC(=O)OC |  |  |  | AC50 (Cytochrome P450 2C9): 25.1 µM (inconclusive)
CC(C)(C)NC(=O)NC(=O)CSc1nnc2ccccn12 |  |  |  | AC50 (Cytochrome P450 2C9): 17.8 µM (inconclusive)
Cc1ccc(NC(=O)NNS(=O)(=O)c2ccc(Br)cc2)cc1 |  |  |  | AC50 (Cytochrome P450 2C9): 1 µM (inconclusive)
O=c1c(-c2ccccc2)nc2cncnc2n1Cc1ccccc1Cl |  |  |  | AC50 (Cytochrome P450 2C19; read-out: AC50): 7.94 µM (inconclusive); AC50 (Cytochrome P450 2C9): 3.16 µM (inconclusive)
O=C(Nc1nc(-c2ccccc2)cs1)C1CCCN(S(=O)(=O)c2cccc([N+](=O)[O-])c2)C1 (stereo not given) |  | 0.173 µM (active) | > 60 µM (not active) | 
O=C(Nc1ccc(N2CCOCC2)c(Cl)c1)c1ccc(Br)o1 |  |  |  | EC50 [4]: 0.113 µM (active)
COc1ccc([C@@H](Nc2ccccn2)c2cc(C(C)(C)C)cc(C(C)(C)C)c2O)cc1 | 2 µM (inconclusive) |  |  | 
O=C(Cc1ccccc1)NC(=S)Nc1ccc2oc(-c3ccccc3F)nc2c1 |  |  |  | EC50 [4]: 3.01 µM (active)
CCOC(=O)C1=C(c2ccccc2)Nc2ncnn2C1c1ccc(OC)c(OC)c1OC (stereo not given) |  | 1.84 µM (active) | > 60 µM (not active) | 
Fc1ccc(COc2cccc(CNCc3ccncc3)c2)cc1 |  | 6.99 µM (active) | > 60 µM (not active) | 
Oc1c(N=NC(S)=Nc2ccccc2F)c2ccccc2n1Cc1ccc(Cl)cc1 |  | 1.06 µM (active) | 5.85 µM (active) | 
COc1ccccc1N(CC(O)Cn1c2ccccc2c2ccccc21)S(=O)(=O)c1ccccc1 (stereo not given) |  | 2.21 µM (active) | > 60 µM (not active) | 
COc1ccccc1-c1nc(NCc2cccs2)c2ccccc2n1 |  |  |  | AC50 (Cytochrome P450 2C19; read-out: AC50): 20 µM (inconclusive)

SMILES | AC50 (Cytochrome P450 3A4) | EC50 [1] | EC50 [2] | also measured
Cc1cccc(N(CC(=O)NCCSCc2ccco2)S(=O)(=O)c2ccccc2)c1 | 3.55 µM (inconclusive) |  |  | 
CCC1=NN(C(=O)CCc2ccccc2)C(O)(C(F)(F)F)C1 (stereo not given) | 15.8 µM (inconclusive) |  |  | 
Cc1cc(C)c2cc(CN(Cc3cccnc3)C(=O)c3ccc(F)cc3)c(Cl)nc2c1 |  | 1.08 µM (active) | 5.07 µM (active) | 
C=C1C(O)(c2ccccc2)C2CC[N+]1(C)CC2.[Cl-] (stereo not given) | 3.16 µM (inconclusive) |  |  | AC50 (Cytochrome P450 2C19): inconclusive
CC(C)OCCCN1C(=O)c2ccccc2C1C(=O)NC1CCCCC1 (stereo not given) |  |  |  | AC50 (Cytochrome P450 2C19; read-out: AC50): 35.5 µM (inconclusive); AC50 (Cytochrome P450 2C9): 7.08 µM (inconclusive)
CCCCCCNC=C1C(=O)N(C)C(=O)N(C)C1=O |  |  |  | AC50 (Cytochrome P450 2C19; read-out: AC50): 15.8 µM (inconclusive); AC50 (Cytochrome P450 2C9): 14.1 µM (inconclusive)
CCn1c(SCC(=O)NC2CCCc3ccccc32)nnc1-c1cccs1 (stereo not given) |  |  |  | AC50 (Cytochrome P450 2C9): 4.47 µM (inconclusive)
COc1ccc(CCn2c(-c3cc([N+](=O)[O-])cc([N+](=O)[O-])c3)nc3nc4ccccc4nc32)cc1 |  | 0.157 µM (active) | > 60 µM (not active) | 
O=c1c(-c2ccc(F)cc2)nc2cnc(N3CCNCC3)nc2n1-c1ccccc1 | 25.1 µM (inconclusive) |  |  | AC50 (Cytochrome P450 2C19): inconclusive
COc1ccc(-c2csc3ncnc(N4CCN(S(=O)(=O)c5cccc(Br)c5)CC4)c23)cc1 |  | 1.71 µM (active) | > 60 µM (not active) | 
O=C(Nc1cccc(-c2cnc3ccccc3n2)c1)c1ccc(Cl)cc1 | 3.55 µM (inconclusive) |  |  | AC50 (Cytochrome P450 2C9): 1.78 µM (inconclusive)
Nc1nc(-c2cccs2)cs1 | 3.98 µM (inconclusive) and 25.1 µM (inconclusive) |  |  | AC50 (Cytochrome P450 2C19; read-out: AC50): 3.98 µM (inconclusive) and 39.8 µM (inconclusive)
Cc1cc(C)c(C#N)c(SCC(=O)C(C)(C)C)n1 |  | 1.96 µM (active) | > 60 µM (not active) | 
CCOc1ccc(CNC(=O)C2CC(=O)N(C3CCCC3)C2)cc1OC (stereo not given) | 25.1 µM (inconclusive) |  |  | AC50 (Cytochrome P450 2C19; read-out: AC50): 39.8 µM (inconclusive)
Cc1nc2ncnn2c(C)c1CCC(=O)Nc1ccc(S(=O)(=O)N2CCCCCC2)cc1 | 39.8 µM (inconclusive) |  |  | 
COc1ccc([C@H]2/C=C\CN(S(=O)(=O)c3ccc4ccccc4c3)[C@@H](C)C(=O)N2Cc2ccc(F)cc2)cc1 |  | 2.03 µM (active) | > 60 µM (not active) | 
COc1ccc(-c2nc3cnc(OCc4ccccc4)nc3n(CCC#N)c2=O)cc1 | 10 µM (inconclusive) |  |  | 
C/C(=N/O)c1ccc2cc(Br)c3ccccc3c2c1 |  |  |  | AC50 (Cytochrome P450 2C19; read-out: AC50): 1 µM (inconclusive)
CCOC(=O)c1cc2c(=O)n3ccccc3nc2n(CCCOC)/c1=N\C(C)=O |  |  |  | AC50 (Cytochrome P450 2C9): 20 µM (inconclusive)
CC(NC(=O)C1(C)CC1(Br)Br)C(C)(C)C (stereo not given) | 14.1 µM (inconclusive) |  |  | 
COc1ccc(-c2nnc3n2N=C(C)CS3)cc1 |  |  |  | AC50 (Cytochrome P450 2C19; read-out: AC50): 25.1 µM (inconclusive); AC50 (Cytochrome P450 2C9): 20 µM (inconclusive)
O=C(O)CNC1=NC2(CCCC2)Cc2ccccc21 |  |  |  | AC50 (Cytochrome P450 2C19): inconclusive
Cc1ccc2[nH]c(C(=O)N/N=C/c3ccccc3C(=O)O)c(-c3ccccc3)c2c1 |  |  |  | EC50 [5]: 5.26 µM (active)
Cc1ccccc1/C=N\NC(=O)c1csnn1 |  |  |  | AC50 (Cytochrome P450 2C19; read-out: AC50): 11.2 µM (inconclusive)
c1ccc2sc(C3(N4CCCCC4)CCCCC3)cc2c1 | 15.8 µM (inconclusive) and 25.1 µM (inconclusive) |  |  | 
NC[C@H](O)c1cc(O)c(O)cc1F | 31.6 µM (inconclusive) |  |  | 
